Experimental findings from ChEMBL document CHEMBL3046599, “Synthesis and local anaesthetic activities of 2-aminothiazole/thiadiazole analogues of lidocaine” (Med Chem Res, 2012) are described below.

In general, IC50 refers to the point on the concentration scale where inhibition reaches its midpoint.

SMILES strings stand for the structures.

One test has as its system Oryctolagus cuniculus. The test can be described thus: Corneal anaesthetic activity in New Zealand Oryctolagus cuniculus (rabbit) assessed as inhibition of Frey's horse hair-induced blink reflex at 2 % solution relative to lidocaine. Format: functional.
Test [1] concerns Rattus norvegicus. The test can be described thus: Local anaesthetic activity in Rattus norvegicus Wistar (rat) sciatic nerve block model assessed as time duration of loss of motor activity at 2 % solution measured until first sign of motor activity.
The subject of test [2] is Rattus norvegicus. The test can be described thus: Local anaesthetic activity in Rattus norvegicus Wistar (rat) sciatic nerve block model assessed as time duration of loss of motor activity at 1 % solution measured over 45 min post injection. It counts as functional.
In the next test the test system is Mus musculus. Description: Local anaesthetic activity in sc dosed Mus musculus Swiss (mouse) tail assessed as loss of pain reflex measured with in 30 secs. It counts as functional, organism-based.

Turning to `COc1ccc(Cc2nnc(NC(=O)CN3CCOCC3)s2)cc1`, the “inhibition (INH)” value in the test with Oryctolagus cuniculus came out at 40.2%. Moreover, the Time in the test with Rattus norvegicus [1] is listed as 63 min; in the test on Rattus norvegicus [2], 117 min. For the same compound, the IC50 in the test on Mus musculus stood at 47 mM.
For `CCN(CC)CC(=O)Nc1nnc(Cc2ccc(OC)cc2)s1`, in that order: 54.2%, 72 min, 77 min and 36 mM.
With `CCN(CC)CC(=O)Nc1nc(-c2ccc(F)cc2Cl)cs1`, the “inhibition (INH)” value in the test with Oryctolagus cuniculus turned out to be 44.3%. For the same compound, the Time in the test with Rattus norvegicus [1] was 45 min; in the test with Rattus norvegicus [2], 25 min. In the test on Mus musculus, the IC50 was 23 mM.
In the same order, the values of `CCN(CC)CC(=O)Nc1nnc(Cc2ccc(F)cc2)s1` are 88.3%, 210 min, 90 min and 17 mM.
For `COc1ccc(Cc2nnc(NC(=O)CN3CCCCC3)s2)cc1`, the “inhibition (INH)” value in the test on Oryctolagus cuniculus amounted to 34.8%. The figures for the Time in the test on Rattus norvegicus [1] and in the test on Rattus norvegicus [2] were 160 min and 35 min, respectively. The IC50 in the test on Mus musculus was found to be 24 mM.
For `O=C(CN1CCOCC1)Nc1nc(-c2ccc(F)cc2Cl)cs1`, in that order: 25.6%, 150 min, 75 min and 32 mM.
Take `O=C(CN1CCCCC1)Nc1nc(-c2ccc(F)cc2Cl)cs1`: the “inhibition (INH)” value in the test on Oryctolagus cuniculus is given as 42.6%. Besides, the Time in the test with Rattus norvegicus [1] worked out at 160 min; with Rattus norvegicus [2], 40 min. In addition, in the test with Mus musculus, the IC50 is 7.2 mM.
Regarding `CCN(CC)CC(=O)Nc1c(C)cccc1C.Cl`, the Time stood at 117 min in the test with Rattus norvegicus [1] and 65 min in the test with Rattus norvegicus [2]. In addition, the IC50 in the test on Mus musculus came to 9.2 mM.
As to `O=C(CN1CCOCC1)Nc1nnc(Cc2ccc(F)cc2)s1`, in the test on Oryctolagus cuniculus, the “inhibition (INH)” value came out at 72.1%. The Time with Rattus norvegicus [1] stood at 50 min; with Rattus norvegicus [2], 25 min. Besides, in the test with Mus musculus, the IC50 was found to be 12.3 mM.
As to `O=C(CN1CCCCC1)Nc1nnc(Cc2ccc(F)cc2)s1`, in the test on Oryctolagus cuniculus, the “inhibition (INH)” value worked out at 92.6%. In addition, the Time with Rattus norvegicus [1] was found to be 180 min; in the test on Rattus norvegicus [2] it was 40 min. In addition, the IC50 in the test with Mus musculus was determined as 6.6 mM.
